Three compounds from publication PMC10253817, “Design, Pharmacological Characterization, and Molecular Docking of Minimalist Peptidomimetic Antagonists of α4β1 Integrin” (International Journal of Molecular Sciences, 2023) can be followed below.

Holding throughout (format): cell-based
The target of assay [1] is T1, α4β1 integrin (Homo sapiens, UniProt P05556+P13612).
T1 construct: Jurkat E6.1 cell line, which endogenously expresses α4β1 integrin; host or cells: Jurkat E6.1
Put plainly: α4β1 integrin-mediated Jurkat cell adhesion to VCAM-1. Conditions: Jurkat cell adhesion to VCAM-1 (2 μg/mL); antag. = reduced cell adhesion; mean ± SD. The procedure: (§1) To this purpose, the ability of the best peptidomimetics to modulate cell adhesion mediated by integrins other than α4β1 was evaluated in HL60 cells, mainly expressing the leukocyte integrin αMβ2, and on K562 cells, mainly expressing α5β1, which shares a β1 subunit with the heterodimer α4β1. […] In contrast, 13 was a moderate promoter of cell adhesion mediated by αMβ2 integrin, behaving as an agonist. Regarding α5β1 integrin, none of the peptidomimetics employed were able to modulate K562 cell adhesion, thus being shown to be completely ineffective toward α5β1 integrin. The reference compound DS-70 was ineffective toward both αMβ2 and α5β1 integrins under the same experimental conditions (Table 3).
The assays were performed as previously described. Briefly, regarding adhesion assays on Jurkat E6.1 or HL-60 cells, black 96-well plates (Corning Costar) were coated overnight at 4 °C with FN or Fg (10 μg/mL) or VCAM-1 (2 μg/mL) in order to investigate α4β1 integrin-mediated cell adhesion. To avoid any kind of unspecific binding, plates were incubated with 100 μL/well of blocking solution (1% BSA in HBSS) for 30 min at 37 °C. Cells were counted, stained with the CellTracker green CMFDA (12.5 μM, 30 min at 37 °C, Life Technologies Italia, Milan, Italy) and after three washes, were preincubated with increasing concentrations of new compounds (10^−10–10^−4 M) or with the vehicle (methanol) for 30 min at 37 °C.
Then, cells were plated (500,000/well) on coated wells and incubated for 30 min at 37 °C. Afterwards nonadherent cells were removed via washing with a blocking solution, and the remaining adhered cells were lysed with 0.5% Triton X-100 in PBS (30 min at 4 °C). Green fluorescence was measured (Ex485 nm/Em535 nm) using an EnSpire Multimode Plate Reader (PerkinElmer, Waltham, MA, USA).
(§2) In both types of adhesion assay, the number of adherent cells was determined via comparison with a standard curve made in the same plate. Experiments were carried out in quadruplicate and repeated at least three times. Data analysis and EC50 or IC50 values were calculated using GraphPad Prism 9.5.1 (GraphPad Software, San Diego, CA, USA).

Assay [2] concerns the target T2, α5β1 integrin (Homo sapiens, UniProt P05556+P08648).
T2 construct: K562 cells, mainly expressing α5β1, which shares a β1 subunit with the heterodimer α4β1; host or cells: K562 (PMA-treated)
The assay can be described thus: α5β1 integrin-mediated K562 cell adhesion to FN. As to conditions: K562 cell adhesion to FN (10 μg/mL). The procedure:
as §1
For adhesion assays mediated by α5β1 integrin, K562 cells were pre-treated with PMA (64.85 nM, Merck Life Science, Milan, Italy) for 48 h to enhance α5β1 integrin expression. 96-well plates were coated via passive adsorption with FN (10 μg/mL) overnight at 4 °C; then, the following day, plates were blocked by adding 100 μL/well of a blocking solution (1% BSA in PBS) and incubated for 1 h at 37 °C. K562 cells were counted and preincubated with various concentrations (10^−10–10^−4 M) of the peptides or with the vehicle for 30 min at RT. Then, K562 cells were plated (50,000 cells/well) and incubated at RT for 1 h. The wells were then washed three times with 1% BSA in PBS, and 50 μL of hexosaminidase substrate was added and incubated at RT for 1 h. After the addition of 100 μL of stopping solution (50 mM glycine and 5 mM EDTA, pH 10.4), plates were read at 405 nm in an EnSpire Multimode Plate Reader.
as §2
Cell culture. Jurkat E6.1 (expressing both α4β1 and αLβ2 integrin), K562 (expressing α5β1 integrin) and HL60 (expressing α Mβ2 integrin) cell lines were purchased from ATCC (Rockville, MD, USA); these cells were routinely cultured in RPMI-1640 (Life Technologies) supplemented with 1% glutamine and 10% fetal bovine serum (FBS). Cells were grown at 37 °C under 5% CO 2 humidified atmosphere. 40 h before the adhesion assays, K562 and HL60 cells were treated with 25 nM or 40 nM phorbol 12 -myristate 13-acetate (PMA; Sigma-Aldrich), respectively, to induced cell differentiation and to increased α5β1 or αMβ2 integrin expression on cell surface (Baiula et al., 2016).
Cell adhesion assays . Concentration-response curves, obtained from cell adhesion assays performed in […]
Figure S1. […]

For assay [3], the target named is T1, α4β1 integrin. The assay can be described thus: HUTS-21 monoclonal antibody binding (α4β1 integrin conformation), flow cytometry. Conditions: Jurkat E6.1 cells; compounds 1–100 nM; FN 10 µg/mL; versus vehicle. The text has this:
Integrin functions are regulated by a number of conformational changes in the protein itself. […] Conformational changes can be evaluated by using conformationally sensitive antibodies which specifically recognize epitopes exposed only in a defined structural conformation. To better depict peptidomimetics–α4β1 integrin interactions, we employed PE-conjugated HUTS-21 mAb that recognizes an epitope mapped to the hybrid domain of the β1 subunit.
Conversely, antagonists 3, 8, and 13, although binding to α4β1 integrin as previously shown, were not able to induce any conformational rearrangement, showing very low binding of HUTS-21 mAb.
Flow cytometry analysis was performed as previously described, with the following modifications. Jurkat E6.1 cells were resuspended in 1% BSA in HBSS (50,000 cells/sample); then, FN (10 μg/mL) and two concentrations of the best peptidomimetics (100–1 nM) were added to the cells for 30 min. Thereafter, phycoerythrin (PE)-conjugated, conformational-sensitive HUTS-21 mAb (PE mouse anti-human CD29 antibody, Becton Dickinson Italia, Milan, Italy) (20 μL/sample) was added for 45 min at room temperature; after two washes, Jurkat E6.1 cells were suspended in PBS, and 10,000 cells/sample were acquired in a Guava®EasyCyte Flow Cytometer. The data are presented as the mean fluorescence intensity (MFI). Data were normalized with the relative fluorescence for nonspecific binding evaluated by exposing the cells to an isotype control mAb set to 0.
(In general: In flow cytometry, cells or beads pass a laser one at a time.)

Each structure is given as a SMILES string. Bounds are passed on as bounds.

The term IC50 denotes the point on the concentration scale where inhibition reaches its midpoint. Lower therefore signals greater potency in that assay.

T1 sequence (P13612 34-1032): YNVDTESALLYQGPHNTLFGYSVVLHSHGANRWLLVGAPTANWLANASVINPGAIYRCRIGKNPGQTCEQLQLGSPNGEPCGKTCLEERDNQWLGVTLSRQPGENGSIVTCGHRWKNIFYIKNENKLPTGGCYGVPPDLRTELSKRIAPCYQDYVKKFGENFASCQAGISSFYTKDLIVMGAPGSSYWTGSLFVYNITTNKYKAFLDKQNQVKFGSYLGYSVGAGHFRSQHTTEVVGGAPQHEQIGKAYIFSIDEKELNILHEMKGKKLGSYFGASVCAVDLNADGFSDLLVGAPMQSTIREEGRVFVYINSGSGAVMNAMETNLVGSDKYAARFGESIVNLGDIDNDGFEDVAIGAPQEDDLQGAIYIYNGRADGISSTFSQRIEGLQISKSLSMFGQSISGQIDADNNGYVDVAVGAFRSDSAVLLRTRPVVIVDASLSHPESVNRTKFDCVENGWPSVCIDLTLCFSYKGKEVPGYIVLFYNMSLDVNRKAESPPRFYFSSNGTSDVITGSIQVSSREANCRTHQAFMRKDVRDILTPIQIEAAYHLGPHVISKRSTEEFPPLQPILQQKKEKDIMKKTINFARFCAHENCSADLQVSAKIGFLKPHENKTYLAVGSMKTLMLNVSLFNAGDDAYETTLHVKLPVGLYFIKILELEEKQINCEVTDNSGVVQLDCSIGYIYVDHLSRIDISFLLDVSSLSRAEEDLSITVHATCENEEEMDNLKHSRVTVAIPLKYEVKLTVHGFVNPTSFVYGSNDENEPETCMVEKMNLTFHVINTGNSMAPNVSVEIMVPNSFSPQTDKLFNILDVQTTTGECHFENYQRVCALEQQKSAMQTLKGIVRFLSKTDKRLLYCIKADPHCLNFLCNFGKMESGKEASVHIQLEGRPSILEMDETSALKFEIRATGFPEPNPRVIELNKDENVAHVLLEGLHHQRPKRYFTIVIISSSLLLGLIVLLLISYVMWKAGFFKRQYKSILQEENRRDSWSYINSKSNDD
T1 sequence (P05556 21-798): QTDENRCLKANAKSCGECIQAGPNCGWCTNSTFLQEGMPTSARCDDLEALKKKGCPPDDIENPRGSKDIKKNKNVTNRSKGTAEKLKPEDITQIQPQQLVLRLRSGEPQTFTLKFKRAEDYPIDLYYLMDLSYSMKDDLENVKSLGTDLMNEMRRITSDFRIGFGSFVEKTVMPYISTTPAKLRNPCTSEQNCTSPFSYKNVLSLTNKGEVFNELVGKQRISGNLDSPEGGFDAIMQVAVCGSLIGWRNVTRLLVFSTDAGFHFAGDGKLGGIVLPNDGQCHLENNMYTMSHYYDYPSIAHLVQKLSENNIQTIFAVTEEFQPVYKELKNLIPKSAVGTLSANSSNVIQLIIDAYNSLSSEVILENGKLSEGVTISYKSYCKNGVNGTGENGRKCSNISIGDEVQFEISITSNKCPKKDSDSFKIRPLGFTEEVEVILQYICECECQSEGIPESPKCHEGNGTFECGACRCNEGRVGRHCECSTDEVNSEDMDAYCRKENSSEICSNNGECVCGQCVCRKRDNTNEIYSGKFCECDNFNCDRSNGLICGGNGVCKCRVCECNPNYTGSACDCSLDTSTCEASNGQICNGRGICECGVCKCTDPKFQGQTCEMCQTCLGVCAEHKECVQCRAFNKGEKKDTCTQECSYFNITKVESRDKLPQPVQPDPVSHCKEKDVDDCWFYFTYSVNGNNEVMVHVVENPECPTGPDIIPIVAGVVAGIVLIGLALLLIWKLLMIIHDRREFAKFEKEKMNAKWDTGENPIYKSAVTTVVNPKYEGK
T2 sequence (P08648 42-894 limits assumed): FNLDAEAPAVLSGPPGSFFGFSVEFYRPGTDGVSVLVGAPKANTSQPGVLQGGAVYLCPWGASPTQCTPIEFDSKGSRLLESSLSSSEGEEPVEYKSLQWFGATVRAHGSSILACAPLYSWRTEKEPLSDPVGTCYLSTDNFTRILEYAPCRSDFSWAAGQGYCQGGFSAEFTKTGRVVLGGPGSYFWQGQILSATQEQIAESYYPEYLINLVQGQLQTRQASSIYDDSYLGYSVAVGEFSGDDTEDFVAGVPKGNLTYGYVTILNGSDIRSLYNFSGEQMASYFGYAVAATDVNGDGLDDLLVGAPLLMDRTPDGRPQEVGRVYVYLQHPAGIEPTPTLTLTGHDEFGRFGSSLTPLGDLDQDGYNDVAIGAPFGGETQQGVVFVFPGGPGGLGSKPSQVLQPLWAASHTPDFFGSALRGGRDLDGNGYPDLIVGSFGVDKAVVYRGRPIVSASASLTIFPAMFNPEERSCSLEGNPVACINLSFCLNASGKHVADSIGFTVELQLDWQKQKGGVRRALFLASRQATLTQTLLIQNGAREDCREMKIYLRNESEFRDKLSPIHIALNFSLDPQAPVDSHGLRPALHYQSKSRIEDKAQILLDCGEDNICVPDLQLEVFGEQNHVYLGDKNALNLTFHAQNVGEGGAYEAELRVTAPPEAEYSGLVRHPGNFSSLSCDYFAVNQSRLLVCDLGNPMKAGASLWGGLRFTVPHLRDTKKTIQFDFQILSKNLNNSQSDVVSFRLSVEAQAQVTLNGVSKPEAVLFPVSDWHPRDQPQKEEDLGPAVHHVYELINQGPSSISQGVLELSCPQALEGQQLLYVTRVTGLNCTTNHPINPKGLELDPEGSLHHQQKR
T2 sequence (P08648 895-1049 partner limits assumed): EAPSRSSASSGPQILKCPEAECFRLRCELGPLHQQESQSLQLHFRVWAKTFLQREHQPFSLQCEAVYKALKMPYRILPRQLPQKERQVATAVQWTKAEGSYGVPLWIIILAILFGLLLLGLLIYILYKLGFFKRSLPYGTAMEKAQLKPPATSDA
T2 sequence (P05556 21-798): as the sequence (P05556 21-798) above

As for `CC(=O)N[C@@H](CNC(=O)Cc1ccc(NC(=O)Nc2ccccc2C)cc1)C(=O)NCC(=O)O` [compound 3], the concentration for half-maximal inhibition (IC50) in assay [1] is 975 nM; in assay [2], > 5000 nM. For the same compound, the “binding of HUTS-21 mAb (MFI)” value in assay [3] is given as “not able to increase the binding of HUTS-21 mAb”.
For `CCCNC(=O)[C@@H](CC(=O)NCC(=O)O)NC(=O)Cc1ccc(NC(=O)Nc2ccccc2C)cc1` [compound 8], in that order: 54 nM, > 5000 nM and “not able to increase the binding of HUTS-21 mAb”.
For `Cc1ccccc1NC(=O)Nc1ccc(CNC(=O)C[C@@H](C)NC(=O)CC(=O)O)cc1` [compound 13], in that order: 879 nM, > 5000 nM and “not able to increase the binding of HUTS-21 mAb”.
